According to PubChem BioAssay (NCI):
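Assay format: 96-well plates, 48-hour exposure. GI50 marks 50% less growth. TGI is the concentration that stops growth completely.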

What was measured:
Test in all cases: NCI-60 cell line screen, 48 h
EKVX NSCLC = tested on: EKVX NSCLC
HL-60(TB) leukemia = tested on: HL-60(TB) leukemia
MALME-3M melanoma = tested on: MALME-3M melanoma
CCRF-CEM leukemia = tested on: CCRF-CEM leukemia
KM12 colon = tested on: KM12 colon
LOX IMVI melanoma = tested on: LOX IMVI melanoma
SK-OV-3 ovarian = tested on: SK-OV-3 ovarian
HOP-62 NSCLC = tested on: HOP-62 NSCLC
RPMI-8226 leukemia = tested on: RPMI-8226 leukemia
RXF 393 renal = tested on: RXF 393 renal

Compound | TGI (EKVX NSCLC) [µM] | TGI (HL-60(TB) leukemia) [µM] | TGI (MALME-3M melanoma) [µM] | TGI (CCRF-CEM leukemia) [µM] | TGI (KM12 colon) [µM] | TGI (LOX IMVI melanoma) [µM] | TGI (SK-OV-3 ovarian) [µM] | TGI (HOP-62 NSCLC) [µM] | TGI (RPMI-8226 leukemia) [µM] | TGI (RXF 393 renal) [µM] | GI50 (EKVX NSCLC) [µM] | GI50 (HL-60(TB) leukemia) [µM] | GI50 (CCRF-CEM leukemia) [µM] | GI50 (KM12 colon) [µM] | GI50 (LOX IMVI melanoma) [µM] | GI50 (SK-OV-3 ovarian) [µM] | GI50 (HOP-62 NSCLC) [µM] | GI50 (RPMI-8226 leukemia) [µM] | GI50 (MALME-3M melanoma) [µM] | GI50 (RXF 393 renal) [µM]
COc1cccc(-c2cc(=O)c3cc(C)c(C)c(C(=O)O)c3o2)c1 | > 100 | > 100 | > 100 | > 100 | > 100 | > 100 | > 100 | > 100 | > 100 | – | – | – | – | – | – | – | – | – | – | –
Nc1nc(=O)c2[nH]cnc2n1O | > 100 | > 100 | > 100 | > 100 | > 100 | > 100 | > 100 | > 100 | > 100 | > 100 | – | – | – | – | – | – | – | – | – | –
COc1ccc(-c2c(-c3cc4c(c(OC)c3OC)OCO4)noc2N)cc1 | > 100 | 1.46 | – | > 100 | > 100 | > 100 | 14.3 | > 100 | 50.9 | – | 4.12 | 0.214 | 0.4 | 0.179 | 0.48 | 0.34 | 0.457 | 0.503 | – | –
COc1ccccc1CN=C1NC(=O)/C(=C/c2ccc3ncccc3c2)S1 | – | > 25 | > 25 | > 25 | > 16.9 | > 25 | > 19.2 | > 20.2 | > 25 | > 25 | – | 10.3 | 7.01 | 6.18 | 7.38 | 6.08 | 7.64 | 7.17 | > 25 | 8.75
COc1ccc2c(c1)[n+]([O-])c(/C(C)=N/NC(N)=S)c(C)[n+]2[O-] | > 100 | > 100 | > 100 | > 100 | > 100 | > 100 | > 100 | > 100 | > 100 | > 100 | – | – | – | – | – | – | – | – | – | –
O=C1c2cccc3c([N+](=O)[O-])ccc(c23)C(=O)N1CCCCl | – | > 10 | > 10 | 3.28 | > 10 | 2.96 | > 10 | > 10 | > 10 | > 10 | – | 5.18 | 0.489 | 6.11 | 1.47 | > 10 | 6.6 | 4.61 | 9.77 | 3.85
COc1ccc(NC(=O)COc2ccccc2)c(C(N)=O)c1 | – | > 100 | > 100 | > 100 | > 50.3 | > 100 | > 100 | 43.4 | > 55.2 | 13.5 | – | 0.368 | 0.961 | 0.52 | 3.14 | 3.35 | 1.07 | 1.93 | 69 | 1.9
C=C(c1ccccc1)[C@@]1(O)CCCC[C@H]1NC(c1ccccc1)c1ccccc1 | 43.7 | 5.95 | 30.7 | 18.7 | 30.9 | 21.9 | 44.2 | 31 | 25.5 | 22.7 | – | – | – | – | – | – | – | – | – | –
CCOC(=O)C1Nc2ccc([N+](=O)[O-])cc2[C@H]2OCC[C@@H]12 (stereo partly drawn) | > 100 | > 100 | > 100 | > 100 | > 100 | > 100 | > 100 | > 100 | – | > 100 | – | – | – | – | – | – | – | – | – | –
CN1CCN2c3ccccc3CC(C#N)(C#N)C2C1 (stereo not drawn) | > 100 | > 100 | > 100 | > 100 | > 100 | > 100 | > 100 | – | > 100 | > 100 | – | – | – | – | – | – | – | – | – | –
CC12CCC(=O)N1c1cc([N+](=O)[O-])ccc1N2 (stereo not drawn) | > 100 | > 100 | > 100 | > 100 | > 100 | > 100 | > 100 | > 100 | > 100 | > 100 | – | – | – | – | – | – | – | – | – | –
CC(=O)CC(=O)ON(C)C(C)=O | – | > 100 | > 100 | > 100 | > 100 | > 100 | > 100 | > 100 | > 100 | > 100 | – | – | – | – | – | – | – | – | – | –
CC(C)(C)c1cc(O)c2c(c1O)C(=O)CCC2 | > 100 | 43.9 | – | > 100 | – | > 100 | > 100 | 91.9 | 54.1 | 90.4 | – | – | – | – | – | – | – | – | – | –
O=C(/C=C/c1ccccc1)Nc1ncc(Cc2ccccc2)s1 | > 100 | 0.609 | > 100 | > 80.8 | 13 | > 23.2 | 6.24 | > 39 | > 28 | 1.59 | 0.44 | 0.212 | 0.194 | 0.149 | 0.139 | 0.458 | 0.398 | 0.309 | 1.08 | 0.267
COc1cc(/C=C/C(=O)c2ccc(F)cc2)ccc1OCCCCOc1cc2c(cc1OC)C(=O)N1CCCC1C=N2 (stereo not drawn) | > 34.9 | 1.21 | 18.3 | 1.88 | 7.71 | 1.11 | > 44.5 | 12.5 | 1.31 | 9.21 | 4.05 | 0.477 | 0.285 | 0.762 | 0.472 | 1.67 | 0.952 | 0.218 | 0.835 | 1.07
COC1=CC(=O)c2c(O)c3c(c(O)c2C1=O)OC1(Oc2c(cc4cc(C)oc(=O)c4c2O)CC1O)C3O (stereo not drawn) | 57 | > 100 | 10.3 | > 100 | > 100 | > 100 | > 100 | > 100 | > 100 | – | – | – | – | – | – | – | – | – | – | –
O=c1ncc(I)c[nH]1 | > 100 | > 100 | > 100 | > 100 | > 100 | > 100 | > 100 | > 100 | > 100 | > 100 | > 100 | > 100 | > 100 | > 100 | > 100 | > 100 | > 100 | > 100 | > 100 | > 100
